PubChem BioAssay (NCI)
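Cells were grown in 96-well plates and exposed to each compound for 48 hours at five concentrations; endpoints were interpolated linearly between bracketing concentrations, or set to the highest concentration if not reached. GI50 = concentration required for 50% inhibition of growth. TGI is the concentration that stops growth completely.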

Test system: NCI-H226 lung
Experiment: growth of human tumour cells (NCI), 48 h

Compound	TGI [µM]
Clc1ccc(-c2cc3nc4ccccc4nc3o2)cc1	> 100

Test system: DU-145 prostate
Experiment: growth of human tumour cells (NCI), 48 h

Compound	TGI [µM]	GI50 [µM]
Cc1cc2nc(C=C(C(F)(F)F)C(F)(F)F)oc2cc1C	> 10	–
CCc1nc(N)nc(N)c1-c1ccc(NC)c([N+](=O)[O-])c1	> 100	–
CCOP(=O)(OCC)C(c1ccc(F)cc1)N(C(=O)NC(F)(F)F)c1cccc(C(F)(F)F)c1 (stereo not given)	> 100	–
O=C1c2cccnc2-c2nc(-c3ccc(Cl)cc3)cc3c2c1nc1ccccc13	> 100	75.4
Clc1ccc(-c2cc3nc4ccccc4nc3o2)cc1	> 100	–

Test system: HOP-92 NSCLC
Experiment: growth of human tumour cells (NCI), 48 h

Compound	TGI [µM]	GI50 [µM]
Cc1cc2nc(C=C(C(F)(F)F)C(F)(F)F)oc2cc1C	> 10	–
CCc1nc(N)nc(N)c1-c1ccc(NC)c([N+](=O)[O-])c1	> 86.8	–
CCOP(=O)(OCC)C(c1ccc(F)cc1)N(C(=O)NC(F)(F)F)c1cccc(C(F)(F)F)c1 (stereo not given)	98.6	–
O=C1c2cccnc2-c2nc(-c3ccc(Cl)cc3)cc3c2c1nc1ccccc13	74.1	22.9
Clc1ccc(-c2cc3nc4ccccc4nc3o2)cc1	> 100	–

Test system: A498 renal
Experiment: growth of human tumour cells (NCI), 48 h

Compound	TGI [µM]	GI50 [µM]
Cc1cc2nc(C=C(C(F)(F)F)C(F)(F)F)oc2cc1C	> 10	–
CCc1nc(N)nc(N)c1-c1ccc(NC)c([N+](=O)[O-])c1	> 87	–
CCOP(=O)(OCC)C(c1ccc(F)cc1)N(C(=O)NC(F)(F)F)c1cccc(C(F)(F)F)c1 (stereo not given)	> 100	–
O=C1c2cccnc2-c2nc(-c3ccc(Cl)cc3)cc3c2c1nc1ccccc13	> 100	33.5
Clc1ccc(-c2cc3nc4ccccc4nc3o2)cc1	> 100	–

Test system: KM12 colon
Experiment: growth of human tumour cells (NCI), 48 h

Compound	TGI [µM]	GI50 [µM]
Cc1cc2nc(C=C(C(F)(F)F)C(F)(F)F)oc2cc1C	> 10	–
CCc1nc(N)nc(N)c1-c1ccc(NC)c([N+](=O)[O-])c1	> 100	–
CCOP(=O)(OCC)C(c1ccc(F)cc1)N(C(=O)NC(F)(F)F)c1cccc(C(F)(F)F)c1 (stereo not given)	> 100	–
O=C1c2cccnc2-c2nc(-c3ccc(Cl)cc3)cc3c2c1nc1ccccc13	> 100	41
Clc1ccc(-c2cc3nc4ccccc4nc3o2)cc1	> 100	–

Test system: RPMI-8226 leukemia
Experiment: growth of human tumour cells (NCI), 48 h

Compound	TGI [µM]	GI50 [µM]
Cc1cc2nc(C=C(C(F)(F)F)C(F)(F)F)oc2cc1C	5.62	–
CCc1nc(N)nc(N)c1-c1ccc(NC)c([N+](=O)[O-])c1	> 43.3	–
CCOP(=O)(OCC)C(c1ccc(F)cc1)N(C(=O)NC(F)(F)F)c1cccc(C(F)(F)F)c1 (stereo not given)	> 100	–
O=C1c2cccnc2-c2nc(-c3ccc(Cl)cc3)cc3c2c1nc1ccccc13	> 100	56.5
Clc1ccc(-c2cc3nc4ccccc4nc3o2)cc1	> 100	–

Test system: NCI-H460 lung
Experiment: growth of human tumour cells (NCI), 48 h

Compound	TGI [µM]	GI50 [µM]
Cc1cc2nc(C=C(C(F)(F)F)C(F)(F)F)oc2cc1C	> 10	–
CCc1nc(N)nc(N)c1-c1ccc(NC)c([N+](=O)[O-])c1	> 100	–
CCOP(=O)(OCC)C(c1ccc(F)cc1)N(C(=O)NC(F)(F)F)c1cccc(C(F)(F)F)c1 (stereo not given)	> 100	–
O=C1c2cccnc2-c2nc(-c3ccc(Cl)cc3)cc3c2c1nc1ccccc13	> 100	37.2
Clc1ccc(-c2cc3nc4ccccc4nc3o2)cc1	> 100	–

Test system: 786-0 renal
Experiment: growth of human tumour cells (NCI), 48 h

Compound	TGI [µM]	GI50 [µM]
Cc1cc2nc(C=C(C(F)(F)F)C(F)(F)F)oc2cc1C	3.38	–
CCc1nc(N)nc(N)c1-c1ccc(NC)c([N+](=O)[O-])c1	> 100	–
O=C1c2cccnc2-c2nc(-c3ccc(Cl)cc3)cc3c2c1nc1ccccc13	29.7	12.8
Clc1ccc(-c2cc3nc4ccccc4nc3o2)cc1	> 100	–

Test system: XF 498 CNS
Experiment: growth of human tumour cells (NCI), 48 h

Compound	TGI [µM]
COc1c(C)cc2c(c1O)C1C3[C@H]4SC[C@@]5(NCCC6=C5NC5C=CC=CC65)C(=O)OCC(c5c6c(c(C)c(OC(C)=O)c54)OCO6)N3[C@@H](O)C(C2)N1C (stereo not given in full)	< 0.01

Test system: MDA-N
Experiment: growth of human tumour cells (NCI), 48 h

Compound	TGI [µM]
Cc1cc2nc(C=C(C(F)(F)F)C(F)(F)F)oc2cc1C	> 10
CCc1nc(N)nc(N)c1-c1ccc(NC)c([N+](=O)[O-])c1	> 100
